Converted amounts (≈) assume the structure as drawn. Like-named read-outs stand apart in the source and are kept apart here.
Assays:
[1] = tested on: Helicobacter pylori; format: cell-based, Helicobacter pylori (HP-2, HP-4, HP-5); settings: for Frequency of innate resistance compared with MG and FFA: H. pylori strains, Table 7; for Frequency of resistant mutants (number of spontaneous mutants): ~1 × 10^8 CFU; for Frequency of resistance / Resistant variants of H. pylori: concentrations as low as two times the MIC
[2] = tested on: Helicobacter pylori; experiment: Minimal inhibitory concentration (MIC) for H. pylori (Example 5); format: cell-based
[3] = tested on: Helicobacter pylori; experiment: Viability of H. pylori after 1 hour in prototype nutritional compositions containing FFA or MG (Example 3, Table 6); format: cell-based, Helicobacter pylori (ATCC 43629); settings: for Change in viable cell number: 1 hour; for Inhibition in nutritional compositions: levels as high as 20 mM; for Reductions in viability of H. pylori: 10 mM for 1 hour
[4] = tested on: Helicobacter pylori; experiment: Viability of H. pylori after 1 hour with FFA or MG in Brucella broth (plate count, Example 1, Table 1); format: cell-based; settings: for Effect on test strains of H. pylori: up to 5 mM, three strains; for Reduction in number of viable H. pylori cells (CFU/mL): 1 hour, 37° C.; for Reductions in cell numbers: test strains HP-2, HP-4, HP-5, 1 hour incubation
[5] = tested on: H. pylori; settings: reported in literature; cited from earlier work
[6] = tested on: Helicobacter felis; experiment: H. felis infected mouse model (urease activity and histology of gastric tissue); format: in vivo, Helicobacter felis in adult mice
Text: The restricted host range of Helicobacter pylori has hampered the development of a widely accepted animal model of H. pylori infection. […] Other animal models of Helicobacter infection have been described based on bacteria similar to H. pylori that have been found in the gastric mucosa of various animals such as the ferret, cat, and monkey. One such model involves the inoculation of adult mice with Heicobacter felis (Fox, J. G., J. C. Murphy, N. S. Taylor, A. Lee, Z. Kabob, and L. Pappo., Local and systemic immune responses in murine Helicobacter felis active chronic gastritis., Infect. Immun. 1993; 61:2309-2315; Dick-Hegedus, E., and A. Lee. Use of a mouse model to examine anti-Helicobacter pylori agents., Scand. J. Gastroenterol. 1991;26:909-915). Preliminary studies were conducted to evaluate the anti-infective activity of MG and FFA against Helicobacter infection in vivo using the H. felis infected mouse model. […] Two weeks later mice were randomized into treatment groups and maintained on liquid diet alone or the same diet supplemented with C10:0 MG or C12:0 MG at a level of 1,5, or 10 mM. Gastric colonization with H. felis in mice was determined 1 and 3 weeks later by evaluation of urease activity ([…]. Barody, A. Gal, and A. Lee., Campylobacter pyloridis gastritis I: Detection of urease as a marker of bacterial colonization and gastritis. Am. J. Gastroenterol. 1987; 82: 292-296) and histopathological assessment of bacterial infection in gastric tissues.

[7] = Helicobacter pylori, Table 7, read-out: MIC
[8] = Nutrament (Formulation II), 20 mM
[9] = Sustacal (Formulation I), 10 mM
[10] = Sustacal (Formulation I), 20 mM
[11] = Ultracal (Formulation III), 5 mM
[12] = Ultracal (Formulation III), 10 mM
[13] = Ultracal (Formulation III), 20 mM
[14] = Nutrament (Formulation II), 5 mM
[15] = Nutrament (Formulation II), 10 mM

Cc1ncc([N+](=O)[O-])n1CCO [metronidazole, reference compound]
Frequency of innate resistance compared with MG and FFA [1]: consistently higher
Frequency of resistant mutants (number of spontaneous mutants) ([1]; strain 43629, 2 × MIC): 791
Frequency of resistant mutants (number of spontaneous mutants) ([1]; strain 43629, 5 × MIC): < 1
Frequency of resistant mutants (number of spontaneous mutants) ([1]; strain 43629, 10 × MIC): < 1
Frequency of resistant mutants (number of spontaneous mutants) ([1]; strain 43679 (so in the source), 2 × MIC): > 1000
Frequency of resistant mutants (number of spontaneous mutants) ([1]; strain 43679 (so in the source), 5 × MIC): 862
Frequency of resistant mutants (number of spontaneous mutants) ([1]; strain 43679 (so in the source), 10 × MIC): 518
Frequency of resistant mutants (number of spontaneous mutants) ([1]; strain 49503, 2 × MIC): > 1000
Frequency of resistant mutants (number of spontaneous mutants) ([1]; strain 49503, 5 × MIC): 48
Frequency of resistant mutants (number of spontaneous mutants) ([1]; strain 49503, 10 × MIC): < 1
MIC [2, 7]: 2 µg/mL (≈ 11.7 µM)

CCCCCCCC(=O)O [Caprylic Acid, caprylic acid, reference compound]
Change in viable cell number [3, 8]: -0.21 LOG CFU/mL
Change in viable cell number ([3]; Sustacal (Formulation I), 5 mM): 0.00 LOG CFU/mL
Change in viable cell number [3, 9]: 0.00 LOG CFU/mL
Change in viable cell number [3, 10]: 0.02 LOG CFU/mL
Change in viable cell number [3, 11]: 0.06 LOG CFU/mL
Change in viable cell number [3, 12]: -0.20 LOG CFU/mL
Change in viable cell number [3, 13]: -0.81 LOG CFU/mL
Inhibition in nutritional compositions [3]: not inhibitory
Effect on test strains of H. pylori [4]: None of the test strains of H. pylori were affected

CCCCC/C=C\C/C=C\C/C=C\C/C=C\CCCC(=O)O [arachidonic acid]
Inhibitory effect on H. pylori [5]: inhibitory effect on H. pylori

CCCCCCCCCC(=O)O [Capric Acid, capric acid, reference compound]
Change in viable cell number [3, 8]: -0.08 LOG CFU/mL
Change in viable cell number ([3]; Sustacal (Formulation I), 5 mM): 0.00 LOG CFU/mL
Change in viable cell number [3, 9]: 0.00 LOG CFU/mL
Change in viable cell number [3, 10]: -0.09 LOG CFU/mL
Change in viable cell number [3, 11]: 0.03 LOG CFU/mL
Change in viable cell number [3, 12]: -0.03 LOG CFU/mL
Change in viable cell number [3, 13]: -0.33 LOG CFU/mL
Inhibition in nutritional compositions [3]: not inhibitory
Effect on test strains of H. pylori [4]: None of the test strains of H. pylori were affected

CCCCCCCC(=O)OCC(O)CO (centres unmarked) [Monocaprylin, monocaprylin]
Reductions in viability of H. pylori [3]: ≥ 1000 fold
Change in viable cell number [3, 14]: -4.23 LOG CFU/mL
Change in viable cell number [3, 15]: -4.23 LOG CFU/mL
Change in viable cell number ([3]; Sustacal (Formulation I), 5 mM): 0.37 LOG CFU/mL
Change in viable cell number [3, 9]: -3.44 LOG CFU/mL
Change in viable cell number [3, 11]: 0.00 LOG CFU/mL
Change in viable cell number [3, 12]: -3.64 LOG CFU/mL
Change in viable cell number [3, 13]: -4.46 LOG CFU/mL
Reduction in number of viable H. pylori cells (CFU/mL) ([4]; ATCC #43579, 5 mM): > 4,000 fold
Reduction in number of viable H. pylori cells (CFU/mL) ([4]; ATCC #43629, 5 mM): > 3,000 fold
Reduction in number of viable H. pylori cells (CFU/mL) ([4]; ATCC #49503, 5 mM): > 40,000 fold
Reductions in cell numbers [4]: ≥ 1000 fold

CCCCCCCCCC(=O)OCC(O)CO (centres unmarked) [Monocaprin, monocaprin]
Histology score ([6]; 10 mM in diet, three weeks): remained lower
Numbers of urease positive and histology positive mice ([6]; diet, three weeks after initiation of treatment): comparable to the number observed in the infected control group (~80-100%)
Number of urease and histology positive mice ([6]; liquid diet with MG at 1, 5 or 10 mM, 1 week of treatment): dose-related reductions in the number of urease and histology positive mice
Reduction in H. felis infection ([6]; second study, daily intragastric gavage 1.4 or 2.8 mg/day, 1 or 3 weeks): no significant reduction in H. felis infection
Level of infection (histology score) ([6]; urease positive mice vs control, diet, 1 week): Lower levels of infection
Frequency of resistance [1]: < 1×10^-8
Resistant variants of H. pylori [1]: no resistant variants of H. pylori were found
Frequency of resistant mutants (number of spontaneous mutants) ([1]; strain 43579, 2 × MIC): < 1
Frequency of resistant mutants (number of spontaneous mutants) ([1]; strain 43579, 5 × MIC): < 1
Frequency of resistant mutants (number of spontaneous mutants) ([1]; strain 43579, 10 × MIC): < 1
Frequency of resistant mutants (number of spontaneous mutants) ([1]; strain 43629, 2 × MIC): < 1
Frequency of resistant mutants (number of spontaneous mutants) ([1]; strain 43629, 5 × MIC): < 1
Frequency of resistant mutants (number of spontaneous mutants) ([1]; strain 43629, 10 × MIC): < 1
Frequency of resistant mutants (number of spontaneous mutants) ([1]; strain 49503, 2 × MIC): < 1
Frequency of resistant mutants (number of spontaneous mutants) ([1]; strain 49503, 5 × MIC): < 1
Frequency of resistant mutants (number of spontaneous mutants) ([1]; strain 49503, 10 × MIC): < 1
MIC ([2]; Table 7): 60.0 µg/mL (≈ 244 µM)
MIC ([2]; preliminary studies): approximately 60 mg/L
Reductions in viability of H. pylori [3]: ≥ 1000 fold
Change in viable cell number [3, 14]: -4.00 LOG CFU/mL
Change in viable cell number [3, 15]: -4.14 LOG CFU/mL
Change in viable cell number ([3]; Sustacal (Formulation I), 5 mM): -3.78 LOG CFU/mL
Change in viable cell number [3, 9]: -3.91 LOG CFU/mL
Change in viable cell number [3, 11]: -4.40 LOG CFU/mL
Change in viable cell number [3, 12]: -4.40 LOG CFU/mL
Reduction in number of viable H. pylori cells (CFU/mL) ([4]; ATCC #43579, 1 mM): > 100,000 fold
Reduction in number of viable H. pylori cells (CFU/mL) ([4]; ATCC #43629, 1 mM): > 60,000 fold
Reduction in number of viable H. pylori cells (CFU/mL) ([4]; ATCC #49503, 1 mM): > 30,000 fold
Reductions in cell numbers [4]: ≥ 10,000 fold

CN(C)C1C(=O)C(C(N)=O)=C(O)C2(O)C(=O)C3=C(O)c4c(O)cccc4C(C)(O)C3CC12 (centres unmarked) [tetracycline, reference compound]
Frequency of innate resistance compared with MG and FFA [1]: consistently higher
Frequency of resistant mutants (number of spontaneous mutants) ([1]; strain 43579, 2 × MIC): TNTC
Frequency of resistant mutants (number of spontaneous mutants) ([1]; strain 43579, 5 × MIC): TNTC
Frequency of resistant mutants (number of spontaneous mutants) ([1]; strain 43579, 10 × MIC): < 1
Frequency of resistant mutants (number of spontaneous mutants) ([1]; strain 43629, 2 × MIC): > 1000
Frequency of resistant mutants (number of spontaneous mutants) ([1]; strain 43629, 5 × MIC): 242
Frequency of resistant mutants (number of spontaneous mutants) ([1]; strain 43629, 10 × MIC): < 1
Frequency of resistant mutants (number of spontaneous mutants) ([1]; strain 49503, 2 × MIC): 148
Frequency of resistant mutants (number of spontaneous mutants) ([1]; strain 49503, 5 × MIC): < 1
Frequency of resistant mutants (number of spontaneous mutants) ([1]; strain 49503, 10 × MIC): < 1
MIC [2, 7]: 0.1 µg/mL (≈ 0.225 µM)

CCCCCCCCCCCC(=O)OCC(O)CO (centres unmarked) [Monolaurin, monolaurin]
Frequency of resistance [1]: < 1×10^-8
Resistant variants of H. pylori [1]: no resistant variants of H. pylori were found
Frequency of resistant mutants (number of spontaneous mutants) ([1]; strain 43579, 2 × MIC): < 1
Frequency of resistant mutants (number of spontaneous mutants) ([1]; strain 43579, 5 × MIC): < 1
Frequency of resistant mutants (number of spontaneous mutants) ([1]; strain 43579, 10 × MIC): < 1
Frequency of resistant mutants (number of spontaneous mutants) ([1]; strain 43629, 2 × MIC): < 1
Frequency of resistant mutants (number of spontaneous mutants) ([1]; strain 43629, 5 × MIC): < 1
Frequency of resistant mutants (number of spontaneous mutants) ([1]; strain 43629, 10 × MIC): < 1
Frequency of resistant mutants (number of spontaneous mutants) ([1]; strain 49503, 2 × MIC): < 1
Frequency of resistant mutants (number of spontaneous mutants) ([1]; strain 49503, 5 × MIC): < 1
Frequency of resistant mutants (number of spontaneous mutants) ([1]; strain 49503, 10 × MIC): < 1
MIC ([2]; Table 7): 15.0 µg/mL (≈ 54.7 µM)
MIC ([2]; preliminary studies): ~15 µg/mL (≈ 54.7 µM)
Reductions in viability of H. pylori [3]: ≥ 1000 fold
Change in viable cell number [3, 14]: -4.23 LOG CFU/mL
Change in viable cell number [3, 15]: -3.87 LOG CFU/mL
Change in viable cell number ([3]; Sustacal (Formulation I), 5 mM): -3.41 LOG CFU/mL
Change in viable cell number [3, 9]: -3.77 LOG CFU/mL
Change in viable cell number [3, 11]: -3.04 LOG CFU/mL
Change in viable cell number [3, 12]: -4.40 LOG CFU/mL
Reduction in number of viable H. pylori cells (CFU/mL) ([4]; ATCC #43579, 1 mM): > 100,000 fold
Reduction in number of viable H. pylori cells (CFU/mL) ([4]; ATCC #43629, 1 mM): > 50,000 fold
Reduction in number of viable H. pylori cells (CFU/mL) ([4]; ATCC #49503, 1 mM): > 30,000 fold
Reductions in cell numbers [4]: ≥ 10,000 fold

CC/C=C\C/C=C\C/C=C\CCCCCCCC(=O)O [ω-3 linolenic acid]
Inhibitory effect on H. pylori [5]: inhibitory effect on H. pylori

Reference: patent US5660842A, “Inhibition of helicobacter” (Bristol-Myers Squibb Company, priority 1995, dated 1997)
